The values below come from BindingDB's records for doi:10.1016/0960-894X(95)00494-E (1995).

The target in the experiment is Xaa-Pro dipeptidase (Sus scrofa). As to the kind of experiment: Inhibitory activity against porcine kidney prolidase.

On to `NCC(=O)[C@@H]1CCC[C@H]1C(=O)O` [2-((1R,2R)-2-Carboxy-cyclopentyl)-2-oxo-ethyl-ammonium; chloride], for which affinity was put at a Ki of 0.27 µM.

One may read the Ki as the equilibrium dissociation constant of an inhibitor or competing ligand from its target.
